Source: ChEMBL document CHEMBL6115028, “An Amazing 30-Year Journey around the DABO Family: A Medicinal Chemistry Lesson on a Versatile Class of Non-nucleoside HIV-1 Reverse Transcriptase Inhibitors” (J Med Chem, 2025)
≈ marks a conversion by molar mass, not a printed value.

Tests used:
[1] = system: Human immunodeficiency virus 1; experiment: Antiviral activity against HIV-1 IIIB infected in human MT2 cells assessed as inhibition of viral growth; assay type: functional, organism-based; settings: Human immunodeficiency virus 1, IIIB
MT2 = experiment: Cytotoxicity against human MT2 cells assessed as reduction in cell growth; assay type: functional, cell-based
[2] = Cytotoxicity against human PBMC cells; assay type: toxicity, cell-based
[3] = system: Human immunodeficiency virus 1; experiment: Antiviral activity against HIV1 harboring Y181C mutant infected in human MT4 cells; assay type: functional, organism-based; settings: Human immunodeficiency virus 1, MT4
[4] = system: Human immunodeficiency virus 1; experiment: Antiviral activity against HIV1 harboring Y188H mutant infected in MT4 cells assessed as virus-induced cytopathicity treated for 5 days by MTT assay; assay type: functional, organism-based; settings: Human immunodeficiency virus 1, MT4, 120 h
[5] = system: Human immunodeficiency virus 1; experiment: Antiviral activity against HIV-1 harboring L100I mutant infected in human MT4 cells assessed as virus-induced cytopathicity treated for 5 days by MTT assay; assay type: functional, organism-based; settings: Human immunodeficiency virus 1, MT4, 120 h
[6] = system: Human immunodeficiency virus 1; experiment: Antiviral wild type activity against HIV-1 Ba-L infected in human TZM-bl cells assessed as reduction in virus-induced cytopathic effect incubated for 3 days by MTT assay; assay type: functional, organism-based; settings: Human immunodeficiency virus 1, Ba-L, 72 h
[7] = system: Human immunodeficiency virus 1; experiment: Antiviral […] activity against HIV-1 A17 harboring reverse transcriptase K103N/Y181C double mutant infected in human C8166 cells assessed as reduction in virus-induced cytopathic effect incubated for 3 days by MTT assay; assay type: functional, organism-based; settings: Human immunodeficiency virus 1, A17, C8166, 72 h
[8] = system: Human immunodeficiency virus 1; experiment: Antiviral wild type activity against HIV-1 WAN infected in human PBMC cells assessed as reduction in virus-induced cytopathic effect incubated for 3 days by MTT assay; assay type: functional, organism-based; settings: Human immunodeficiency virus 1, WAN, 72 h
[9] = system: Human immunodeficiency virus 1; experiment: Antiviral wild type activity against HIV-1 TC-1 infected in human PBMC cells assessed as reduction in virus-induced cytopathic effect incubated for 3 days by MTT assay; assay type: functional, organism-based; settings: Human immunodeficiency virus 1, TC-1, PBMC, 72 h
[10] = system: Human immunodeficiency virus 1; experiment: Antiviral activity against HIV-1 IIIB infected in human C8166 cells assessed as reduction in virus-induced cytopathic effect incubated for 3 days by MTT assay; assay type: functional, organism-based; settings: Human immunodeficiency virus 1, IIIB, C8166, 72 h
[11] = system: Human immunodeficiency virus 1; experiment: Antiviral wild type activity against HIV-1 IIIB infected in human C8166 cells assessed as reduction in virus-induced cytopathic effect incubated for 3 days by MTT assay; assay type: functional, organism-based; settings: Human immunodeficiency virus 1, IIIB, C8166, 72 h
Reverse transcriptase = Reverse transcriptase (Human immunodeficiency virus 1, UniProt Q9WKE8, K103N); experiment: Binding affinity to HIV-1 reverse transcriptase K103N mutant assessed as inhibition constant
[12] = target: T1, Human immunodeficiency virus type 1 reverse transcriptase (Human immunodeficiency virus 1, UniProt Q72547); experiment: Binding affinity to wild type HIV-1 reverse transcriptase assessed as inhibition constant
[13] = system: Human immunodeficiency virus 1; experiment: Antiviral activity against wild type HIV-1 NL4-3 infected in human MT4 cells assessed as reduction in viral replication measured for 72 hrs by ELISA analysis; assay type: functional, organism-based; settings: Human immunodeficiency virus 1, NL4-3, MT4, 72 h
Hepatitis B virus = experiment: Antiviral activity against Hepatitis B virus infected in human HepG2.2.15 cells assessed as inhibition of HBV DNA production by qRT-PCR analysis; assay type: functional, organism-based
Staphylococcus aureus [14] = experiment: Antibacterial activity against Staphylococcus aureus; assay type: functional
Bacillus subtilis [15] = experiment: Antibacterial activity against Bacillus subtilis; assay type: functional
dengue virus type 2 = experiment: Antiviral activity Dengue virus 2; assay type: functional, organism-based
dengue virus type 4 = experiment: Antiviral activity Dengue virus 4; assay type: functional, organism-based
dengue virus type 1 = experiment: Antiviral activity Dengue virus 1; assay type: functional, organism-based
[16] = Cytotoxicity against African green monkey Vero cells; assay type: toxicity, cell-based; settings: chlorocebus sabaeus
dengue virus type 3 = experiment: Antiviral activity Dengue virus 3; assay type: functional, organism-based
[17] = Inhibition of HIV-1 Reverse transcriptase G190S mutant; design: species or system Human immunodeficiency virus 1
[18] = system: Human immunodeficiency virus 1; experiment: Antiviral activity against HIV1 harboring K103N mutant infected in MT4 cells; assay type: functional, organism-based; settings: Human immunodeficiency virus 1, MT4
[19] = system: Human immunodeficiency virus 1; experiment: Antiviral activity against HIV-1 harboring L100I mutant infected in human MT4 cells assessed as […]; assay type: functional, organism-based; settings: Human immunodeficiency virus 1, MT4
Candida albicans = experiment: Antifungal activity against Candida albicans ATCC 10231 assessed as growth inhibition measured after 48 hrs by CLSI based method; assay type: functional
Aspergillus niger = experiment: Antifungal activity against Aspergillus niger assessed as reduction in fungal growth; assay type: functional
Bacillus cereus = experiment: Antibacterial activity against Bacillus cereus ATCC 4342 assessed as inhibition of microbial growth incubated for 24 hrs by microdilution method; assay type: functional
Bacillus subtilis [20] = experiment: Antibacterial activity against Bacillus subtilis ATCC 6633 assessed as bacterial growth inhibition measured after 48 hrs by resazurin assay; assay type: functional
Staphylococcus aureus [21] = experiment: Antibacterial activity against Staphylococcus aureus ATCC 25923 assessed as reduction in bacterial growth incubated for 18 to 20 hrs by broth microdilution assay; assay type: functional; settings: time 18-20 hrs
C8166 = experiment: Cytotoxicity against human C8166 cells assessed as reduction in cell viability incubated for 72 hrs by MTT assay; assay type: functional
[22] = system: Human immunodeficiency virus 1; experiment: Antiviral activity against wild type HIV-1 IIIB infected in human MT4 cells; assay type: functional, organism-based; settings: Human immunodeficiency virus 1, IIIB
[23] = Selectivity index, ratio of CC50 for human C8166 cells to EC50 for antiviral activity against HIV-1 IIIB infected in human C8166 cells; assay type: toxicity, cell-based; settings: read-out: Ratio CC50/EC50
[24] = Cytotoxicity against African green monkey Vero cells assessed as reduction in cell viability measured after 96 hrs by MTT assay; assay type: toxicity, cell-based; settings: chlorocebus sabaeus
Zika virus = experiment: Antiviral activity against Zika virus infected in Vero cells assessed as reduction in viral DNA replication; assay type: functional, organism-based
[25] = Inhibition of Hepatitis C virus NS5B RNA dependent RNA polymerase; design: species or system Hepacivirus hominis
[26] = Cytotoxicity against African green monkey Vero cells assessed as reduction in cell growth measured after 96 hrs by MTT assay; assay type: toxicity, cell-based; settings: chlorocebus sabaeus
[27] = system: Human immunodeficiency virus 1; experiment: Antiviral activity against HIV-1 infected in human MT4 cells assessed as reduction in virus induced cytopathic effect measured for 4 days by MTT assay; assay type: functional, organism-based; settings: Human immunodeficiency virus 1, MT4, 96 h
MT4 = experiment: Cytotoxicity against human MT4 cells assessed as reduction in cell viability by MTT assay; assay type: functional
[28] = Selectivity index, ratio of CC50 for human MT4 cells to EC50 for antiviral activity against HIV-1 infected in human MT4 cells; assay type: toxicity, cell-based; settings: read-out: Ratio CC50/EC50
[29] = target: T1, Human immunodeficiency virus type 1 reverse transcriptase; experiment: Inhibition of recombinant HIV-1 reverse transcriptase associated RNA-dependent DNA polymerase activity
[30] = Toxicity in human C8166 cells assessed as reduction in cell viability incubated for 72 hrs by MTT assay; assay type: cell-based; settings: read-out: TD50
[31] = Toxicity in African green monkey Vero cells assessed as reduction in cell viability incubated for 72 hrs by MTT assay; assay type: cell-based; settings: chlorocebus sabaeus, read-out: TD50
Staphylococcus aureus [32] = experiment: Antibacterial activity against Staphylococcus aureus assessed as reduction in microbial growth measured for 18 hrs by CLSI based broth microdilution method; assay type: functional
[33] = system: Human immunodeficiency virus 1; experiment: Antiviral activity against HIV-1 IIIB infected in […] cells assessed as reduction in viral replication measured for 72 hrs; assay type: functional, organism-based; settings: Human immunodeficiency virus 1, IIIB
[34] = Selectivity index, ratio of CC50 for Vero cells to EC50 for antiviral activity against HIV-1 infected in Vero cells; assay type: toxicity, cell-based; settings: monkey, read-out: Ratio CC50/EC50
[35] = Cytotoxicity against African green monkey Vero cells assessed as reduction in cell viability incubated for 72 hrs by MTT assay; assay type: toxicity, cell-based; settings: chlorocebus sabaeus

Nc1cc(Cl)nc(SCc2ccccc2)n1
EC50 [1]: 400 nM
IC50 (MT2): > 16000 nM
IC50 [2]: > 16000 nM

C[C@H](Sc1nc(N)cc(Cl)n1)c1cc2ccoc2cn1
EC50 [3]: 179 nM
EC50 [4]: 77 nM
EC50 [5]: 39 nM

CCc1c(CC2CCCCC2)nc(SCc2cc(-c3ccc(O)cc3)[nH]n2)[nH]c1=O
EC50 [6]: 48 nM
EC50 [7]: 2770 nM
EC50 [8]: 56 nM
EC50 [9]: 14 nM
EC50 [10]: 3 nM
EC50 [11]: 4 nM

Cc1c(C(C)c2c(F)cccc2Cl)nc(N(C)C)[nH]c1=O (stereo unspecified)
Ki (Reverse transcriptase): 750 nM
Ki [12]: 17 nM
EC50 [13]: 3 nM

O=c1[nH]c(SC2O[C@H](CO)[C@H](O)[C@@H](O)[C@@H]2O)nc(Cc2ccccc2)c1Cc1ccccc1 (stereo partly specified)
EC50 (Hepatitis B virus): 200 nM

Cc1ccc(-c2nc(S/C(=N/Nc3ccc(O)cc3)C(=O)c3ccc(Br)cc3)[nH]c(=O)c2C#N)cc1
MIC (Staphylococcus aureus [14]): 0.19 µg/mL (≈ 0.339 µM)
MIC (Bacillus subtilis [15]): 1.17 µg/mL (≈ 2.09 µM)

CCc1c(CC2CCCCC2)nc(SCc2n[nH]c(-c3ccc(F)c(F)c3)c2Cl)[nH]c1=O
EC50 (dengue virus type 2): 9230 nM
EC50 (dengue virus type 4): 8910 nM
EC50 (dengue virus type 1): 1470 nM
CC50 [16]: > 200000 nM
EC50 (dengue virus type 3): 7080 nM

N#Cc1c(-c2ccc(Br)cc2)nc(S/C(=N/Nc2ccc(O)cc2)C(=O)c2ccc(Br)cc2)[nH]c1=O
MIC (Staphylococcus aureus [14]): 1.17 µg/mL (≈ 1.87 µM)
MIC (Bacillus subtilis [15]): 2.34 µg/mL (≈ 3.74 µM)

Cc1cc(/C=C/C#N)cc(C)c1Nc1ncnc(Nc2ccc(C#N)cc2)n1
IC50 [17]: 0.1 nM

O=c1cc(Cc2ccccc2)nc(NCCCCO)[nH]1
EC50 [18]: 840000 nM
EC50 [19]: 525000 nM

CCc1c(Cc2ccc3c(c2)OCO3)nc(SCCCN2C(=O)c3ccccc3C2=O)[nH]c1=O
MIC (Candida albicans): 25 µg/mL (≈ 52.4 µM)
MIC (Aspergillus niger): 75 µg/mL (≈ 157 µM)
MIC (Bacillus cereus): 75 µg/mL
MIC (Bacillus subtilis [20]): 100 µg/mL (≈ 209 µM)
MIC (Staphylococcus aureus [21]): 25 µg/mL (≈ 52.4 µM)

CCc1c(CC2CCCCC2)nc(SCc2n[nH]c(-c3ccc(F)cc3)c2Cl)[nH]c1=O
EC50 (dengue virus type 2): 13200 nM
EC50 (dengue virus type 4): 11400 nM
EC50 (dengue virus type 1): 17500 nM
CC50 [16]: > 200000 nM
EC50 (dengue virus type 3): 6800 nM

CCc1c(Cc2ccc3c(c2)OCO3)nc(SCCN(C)C)[nH]c1=O
MIC (Candida albicans): 50 µg/mL (≈ 138 µM)
MIC (Aspergillus niger): 75 µg/mL (≈ 207 µM)
MIC (Bacillus cereus): 100 µg/mL
MIC (Bacillus subtilis [20]): 50 µg/mL (≈ 138 µM)
MIC (Staphylococcus aureus [21]): 25 µg/mL (≈ 69.2 µM)

CCc1c(CC23CC4CC(CC(C4)C2)C3)nc(SCC(=O)c2ccccc2)[nH]c1=O
CC50 (C8166): 20400 nM
EC50 [22]: 190 nM
EC50 [10]: 190 nM
selectivity ratio [23]: 107

CCc1c(CC2CCCCC2)nc(SCC(=O)Nc2cc(F)cc(F)c2)[nH]c1=O
CC50 at 96 h [24]: > 10000 nM
EC50 (Zika virus): > 50000 nM
IC50 [25]: 89 nM
CC50 at 96 h [26]: 60200 nM

CCC(C)Oc1nc(N)cc(S(=O)(=O)c2cccc(C)c2)n1 (stereo unspecified)
EC50 [27]: 4700 nM
CC50 (MT4): > 200000 nM
selectivity ratio [28]: > 43
IC50 [29]: 26500 nM

CCc1c(CC23CC4CC(CC(C4)C2)C3)nc(SCC(=O)c2ccc(OC)cc2)[nH]c1=O
CC50 (C8166): 17200 nM
EC50 [22]: 100 nM
EC50 [10]: 100 nM
selectivity ratio [23]: 172

COc1ccc(C(Cl)(Cl)c2cc(Cl)nc(OC)n2)cc1
CC50 at 72 h [30]: 25 µg/mL (≈ 74.9 µM)
CC50 at 72 h [31]: 12.5 µg/mL (≈ 37.5 µM)
MIC (Staphylococcus aureus [32]): 6.2 µg/mL

CCc1c(CC2CCCCC2)nc(SCc2cc(-c3ccc(SC)cc3)[nH]n2)[nH]c1=O
EC50 [6]: 193 nM
EC50 [7]: 4870 nM
EC50 [8]: 165 nM
EC50 [9]: 55 nM
EC50 [10]: 11 nM
EC50 [11]: 18 nM

Cc1c(Sc2ccccc2)n(COCCO)c(=O)[nH]c1=O [HEPT]
EC50 [33]: 7000 nM
selectivity ratio [34]: 106
CC50 at 72 h [35]: 740000 nM
